From patent US6806229B1, “Herbicidally active pyridine sulfonyl urea derivatives” (LG Life Sciences, priority 2003, dated 2004)
Read-outs that look alike come from different tables or passages of the source.

Key:
[1] = system: Echinochloa crus-galli; test: Herbicidal activity to barnyardgrass in paddy condition, pre- and post-emergence, greenhouse pot test; type: in vivo; settings: for pest or weed control at 5 g/ha / pest or weed control at 10 g/ha / pest or weed control at 20 g/ha / pest or weed control at 30 g/ha: Echinochloa crus-galli, 336 h, visual rating after two weeks
Text: (§1) Pots having a surface area of 150 cm^2 were filled with a small amount of fertilizer and sterilized paddy field soil in a muddy state with a depth of 5 cm. Five (5) seeds of pre-germinated rice were directly sown on the soil surface and three (3) rice seedlings (2˜3 leaves) prepared in advance were transplanted in a depth of 2 cm in each pot. In another pot, seeds of barnyardgrass were sown and incorporated into the surface layer of soil. After sowing and transplanting of rice plant and sowing of barnyardgrass, the pots were flooded with water 3 cm deep and kept in a greenhouse. The rice plant was treated with the chemicals 5 days after sowing or transplanting, and barnyardgrass was treated with the chemicals at the pre-emergence (5 days after from sowing) and post-emergence stage (at the three-leaf stage, usually after 15 days from sowing).
(§2) Suitable herbicidal compositions were prepared by mixing and dissolving 1 part by weight of the active compound with 5 parts by weight of acetone and 1 part by weight of alkylaryl polyglycolether as an emulsifier and then diluting with water to the predetermined concentration. Application was made by dropping the herbicide solutions onto the water surface of the pots.

[2] = system: Oryza sativa; test: Phytotoxicity to rice (direct-seeded and transplanted) in paddy condition, greenhouse pot test; type: in vivo; settings: visual rating after two weeks; for Phytotoxicity, Oryza sativa, Seed: direct-seeded rice, treated 5 days after sowing; for Phytotoxicity, Oryza sativa, Transplanted: transplanted rice seedlings, treated 5 days after transplanting
Text: as §1, §2

[3] = post-emergence, three-leaf stage, read-out: Herbicidal activity, Echinochloa crus-galli, Post-emergence (3-Leaf stage)
[4] = pre-emergence (5 days after sowing), read-out: Herbicidal activity, Echinochloa crus-galli, Pre-emergence
[5] = 20 g/ha, post-emergence, three-leaf stage, read-out: Herbicidal activity, Echinochloa crus-galli, Post-emergence (3-Leaf stage)
[6] = 20 g/ha, pre-emergence (5 days after sowing), read-out: Herbicidal activity, Echinochloa crus-galli, Pre-emergence
[7] = pre-emergence (5 days after sowing), 0 = no activity, 100 = complete death, read-out: Herbicidal activity, Echinochloa crus-galli, Pre-emergence
[8] = 80 g/ha, 0 = none, 100 = complete death

| Compound | pest or weed control at 5 g/ha [1, 3] [%] | pest or weed control at 5 g/ha [1, 4] [%] | pest or weed control at 10 g/ha [1, 3] [%] | pest or weed control at 10 g/ha [1, 4] [%] | pest or weed control at 20 g/ha [1, 5] [%] | pest or weed control at 20 g/ha [1, 6] [%] | pest or weed control at 30 g/ha [1, 3] [%] | pest or weed control at 30 g/ha [1, 7] [%] | Phytotoxicity, Oryza sativa, Seed ([2]; 10 g/ha) [%] | Phytotoxicity, Oryza sativa, Transplanted ([2]; 10 g/ha) [%] | Phytotoxicity, Oryza sativa, Seed ([2]; 20 g/ha) [%] | Phytotoxicity, Oryza sativa, Transplanted ([2]; 20 g/ha) [%] | Phytotoxicity, Oryza sativa, Seed ([2]; 40 g/ha) [%] | Phytotoxicity, Oryza sativa, Transplanted ([2]; 40 g/ha) [%] | Phytotoxicity, Oryza sativa, Seed [2, 8] [%] | Phytotoxicity, Oryza sativa, Transplanted ([2]; 80 g/ha) [%] | herbicidal activity to barnyardgrass ([1]; 20 g/ha, pre- or post-emergence treatments) [%] |
| --- | --- | --- | --- | --- | --- | --- | --- | --- | --- | --- | --- | --- | --- | --- | --- | --- | --- |
| COc1cc(OC)nc(NC(=O)NS(=O)(=O)c2cccnc2[C@@H](OC(C)=O)[C@H](C)F)n1 [Standard Compound D, reference compound] | 50 | 30 | 90 | 100 | 100 | 100 | 100 | 100 | 10 | 0 | 20 | 10 | 30 | 20 | 60 | 50 | – |
| COc1cc(OC)nc(NC(=O)NS(=O)(=O)c2ccccc2[C@@H](OC(C)=O)[C@H](C)F)n1 [Standard Compound B, reference compound] | 50 | 50 | 90 | 100 | 90 | 100 | 100 | 100 | 30 | 20 | 40 | 20 | 50 | 40 | 70 | 60 | – |
| COCC(=O)O[C@H](c1nccc(C)c1S(=O)(=O)NC(=O)Nc1nc(OC)cc(OC)n1)[C@H](C)F [Com. 7] | 50 | 60 | 80 | 80 | 95 | 90 | 100 | 100 | 0 | 0 | 0 | 0 | 20 | 10 | 30 | 20 | – |
| COc1cc(OC)nc(NC(=O)NS(=O)(=O)c2ccccc2[C@@H](O)[C@H](C)F)n1 [Standard Compound A, reference compound] | 60 | 60 | 90 | 100 | 95 | 100 | 100 | 100 | 40 | 20 | 40 | 30 | 50 | 40 | 80 | 70 | – |
| COCC(=O)O[C@H](c1nccc(Br)c1S(=O)(=O)NC(=O)Nc1nc(OC)cc(OC)n1)[C@H](C)F [Com. 6] | 50 | 60 | 70 | 80 | 90 | 100 | 100 | 100 | 0 | 0 | 0 | 0 | 10 | 0 | 20 | 20 | – |
| COCC(=O)O[C@H](c1nccc(Cl)c1S(=O)(=O)NC(=O)Nc1nc(OC)cc(OC)n1)[C@H](C)F [Com. 5] | 60 | 50 | 70 | 80 | 90 | 90 | 100 | 100 | 0 | 0 | 10 | 0 | 20 | 0 | 30 | 20 | – |
| COc1cc(OC)nc(NC(=O)NS(=O)(=O)c2cccnc2[C@@H](OC(=O)CCO)[C@H](C)F)n1 [Com. 3] | 60 | 60 | 80 | 90 | 90 | 95 | 100 | 100 | 0 | 5 | 10 | 10 | 30 | 20 | 30 | 20 | – |
| COc1cc(OC)nc(NC(=O)NS(=O)(=O)c2cccnc2[C@@H](OC(=O)CO)[C@H](C)F)n1 [Com. 1] | 60 | 50 | 80 | 80 | 90 | 90 | 100 | 90 | 0 | 0 | 10 | 10 | 30 | 10 | 30 | 20 | – |
| COc1cc(OC)nc(NC(=O)NS(=O)(=O)c2cccnc2[C@@H](O)[C@H](C)F)n1 [Standard Compound C, reference compound] | 60 | 40 | 90 | 100 | 100 | 100 | 100 | 100 | 10 | 10 | 20 | 20 | 30 | 30 | 70 | 50 | – |
| CCOC(=O)c1cnn(C)c1S(=O)(=O)NC(=O)Nc1nc(OC)cc(OC)n1 [Standard Compound E, Pyrazosulfuron-ethyl, reference compound] | 0 | 0 | 0 | 10 | 0 | 20 | 20 | 30 | 0 | 0 | 10 | 0 | 20 | 0 | 30 | 10 | 10 |
